Reference: patent US4150029A, “3-Aryl 2-oxazolidinones, their process of preparation and their therapeutical application” (Delalande S.A., priority 1976, dated 1979)
Where two headings read alike, the source gives them in different places.

Assays:
Format in all cases: in vivo
[1] = test system: generalised trembling caused by an intraperitoneal injection of dl-5-hydroxytryptophane; assay: Test A: potentiation of generalised trembling caused by dl-5-hydroxytryptophane in the mouse; conditions: po, read-out: Test A 50 DE
Method: Potentiation in a mouse of generalised trembling caused by an intraperitoneal injection (200 mg/kg) of dl-5-hydroxytryptophane, according to the mode of operation described by GOURET C. and RAYNAUD G. in the J. Pharmacol. (PARIS), (1974), 5, 231.

[2] = test system: pontogeniculo-occipital points (P.G.O.) caused by reserpine; assay: Test C: diminution in density of reserpine-induced pontogeniculo-occipital (P.G.O.) points in the cat; conditions: Felis catus, po, reserpine 0.5 mg/kg, read-out: Test C 50 DE
Method: Diminution in the density of pontogeniculo-occipital points (P.G.O.) caused by injecting a cat with 0.5 mg/kg of reserpine, according to the mode of operation described by COSTON A. and GOURET C. in J. Pharmacol. (PARIS), (1976), 7, 409.

[3] = test system: ptosis observed one hour after an intravenous injection of reserpine; assay: Test B: antagonism of reserpine-induced ptosis in the mouse; conditions: po, 1 h, p.o., reserpine 2 mg/kg i.v., read-out: Test B 50 DE
Method: Antagonism in relation to ptosis observed one hour after an intravenous injection (2 mg/kg) of reserpine was given to a mouse, according to the mode of operation described by GOURET C. and THOMAS J. in J. Pharmacol. (PARIS), (1973), 4, 401.

[4] = mouse, p.o., dl-5-hydroxytryptophane 200 mg/kg i.p.

Row | SMILES | ED50 [1, 4] [mg/kg] | ED50 [2] [mg/kg] | ED50 [3] [mg/kg] | ED50 ([1]; Mus musculus) [mg/kg]
1 | O=C1OC(CO)CN1c1cccc([N+](=O)[O-])c1 (stereo not drawn) [compound 740511, 5-hydroxymethyl-3-metanitrophenyl-2 oxazolidinone] | 55 | 40 | 17 | 
2 | CCc1cccc(N2CC(CO)OC2=O)c1 (stereo not drawn) [compound 740512] | 68 | 50 | 32 | 
3 | Cc1ccc(N2CC(CO)OC2=O)cc1C (stereo not drawn) [compound 750341] | 100 | 22 | 41 | 
4 | O=C1OC(CO)CN1c1cccc(Br)c1 (stereo not drawn) [compound 750710] | 62 | 14 | 100 | 
5 | CCOc1ccc(N2CC(COC(=O)NC)OC2=O)cc1 (stereo not drawn) [compound 760104] |  | > 50 | 44 | 48
6 | CC(C)Oc1ccc(N2CC(CO)OC2=O)cc1 (stereo not drawn) [compound 760116] | 60 | 15 | 50 | 
7 | CN(C)c1ccc(N2CC(CO)OC2=O)cc1 (stereo not drawn) [compound 760133] | 11 | 4.5 | 7.2 | 
8 | CCCOc1ccc(N2CC(CO)OC2=O)cc1 (stereo not drawn) [compound 760303] | 9 | 6.9 | 14 | 
9 | C=CCOc1ccc(N2CC(CO)OC2=O)cc1 (stereo not drawn) [compound 760306] | 14 | 2.5 | 29 | 
10 | C#CCOc1ccc(N2CC(CO)OC2=O)cc1 (stereo not drawn) [compound 760307] | 8 | 5 | 14 | 
11 | CCN(CC)c1ccc(N2CC(CO)OC2=O)cc1 (stereo not drawn) [compound 760311] | 27 | 9 | 32 | 
12 | O=C1OC(CO)CN1c1ccc(OC2CCCCC2)cc1 (stereo not drawn) [compound 760314] | 19 | 12 | 18 | 
13 | O=C1OC(CO)CN1c1ccc(OCCc2ccccc2)cc1 (stereo not drawn) [compound 760317] | 25 | 45 | 17 | 
14 | O=C1OC(CO)CN1c1ccc(OCc2ccc(Cl)cc2)cc1 (stereo not drawn) [compound 760337] | 6 | 120 | 5 | 
15 | CN(Cc1ccccc1)c1ccc(N2CC(CO)OC2=O)cc1 (stereo not drawn) [compound 760375, 5-hydroxymethyl 3-p-N-benzyl N-methylaminophenyl 2-oxazolidinone] | 39 | 160 | 28 | 
16 | CNc1ccc(N2CC(CO)OC2=O)cc1 (stereo not drawn) [compound 760395, 5-hydroxymethyl 3-p-N-methylaminophenyl 2-oxazolidinone] | 39 | 160 | 28 | 
17 | CCCCCOc1ccc(N2CC(CO)OC2=O)cc1 (stereo not drawn) [compound 760396] | 12 | 20 | 1.4 | 
18 | CNC(=O)OCC1CN(c2ccc(OCc3ccccc3)cc2)C(=O)O1 (stereo not drawn) [compound 760409] |  | > 50 | 7 | 100
19 | CC(C)COc1ccc(N2CC(CO)OC2=O)cc1 (stereo not drawn) [compound 760414] | 13 | 5.5 | 3 | 
20 | O=C1OC(CO)CN1c1ccc(OCc2ccc(F)cc2)cc1 (stereo not drawn) [compound 760432] | 3.8 | 24 | 2 | 
21 | O=C1OC(CO)CN1c1ccc(OCc2cccc(F)c2)cc1 (stereo not drawn) [compound 760453] | 5.5 | 11.6 | 7 | 
22 | CCSc1ccc(N2CC(CO)OC2=O)cc1 (stereo not drawn) [compound 760466] | 40 | 8.25 | 32 | 
23 | CCCCSc1ccc(N2CC(CO)OC2=O)cc1 (stereo not drawn) [compound 760473] | 41 | 11.5 | 22 | 

Row | SMILES | ED50 [1, 4] [mg/kg] | ED50 [2] [mg/kg] | ED50 [3] [mg/kg] | ED50 ([1]; Mus musculus) [mg/kg]
24 | O=C1OC(CO)CN1c1ccc(N2CCCC2)cc1 (stereo not drawn) [compound 760474] | 42 | 14 | 68 | 
25 | Cc1cccc(COc2ccc(N3CC(CO)OC3=O)cc2)c1 (stereo not drawn) [compound 760533] | 41 | 51 | 54 | 
26 | C=C(C)COc1ccc(N2CC(CO)OC2=O)cc1 (stereo not drawn) [compound 760535] | 28 | 5.1 | 50 | 
27 | C=CCCOc1ccc(N2CC(CO)OC2=O)cc1 (stereo not drawn) [compound 760536] | 8.6 | 6.3 | 15 | 
28 | Cc1ccccc1COc1ccc(N2CC(CO)OC2=O)cc1 (stereo not drawn) [compound 760537] | 35 | 37.5 | 17 | 
29 | O=C1OC(CO)CN1c1ccc(OCc2cccc(Cl)c2)cc1 (stereo not drawn) [compound 760548] | 4.4 | 33.5 | 3.4 | 
30 | CCCCCCOc1ccc(N2CC(CO)OC2=O)cc1 (stereo not drawn) [compound 760549] | 26 | 85 | 11 | 
31 | O=C1OC(CO)CN1c1ccc(OCc2cccc(C(F)(F)F)c2)cc1 (stereo not drawn) [compound 760556] | 5 | 14.1 | 3.2 | 
32 | O=C1OC(CO)CN1c1ccc(OCc2ccc(Br)cc2)cc1 (stereo not drawn) [compound 760574] | 21 | > 50 | 22 | 
33 | CCCSc1ccc(N2CC(CO)OC2=O)cc1 (stereo not drawn) [compound 760600] | 19 | 6.26 | 15.4 | 
34 | O=C1OC(CO)CN1c1ccc(SC2CCCCC2)cc1 (stereo not drawn) [compound 760621] | 100 | 40 | 42 | 
35 | O=C1OC(CO)CN1c1ccc(OCc2ccc([N+](=O)[O-])cc2)cc1 (stereo not drawn) [compound 760622] | 5.5 | 40 | 2.1 | 
36 | CC(C)=CCOc1ccc(N2CC(CO)OC2=O)cc1 (stereo not drawn) [compound 760650] | 25.5 | 7.03 | 3.4 | 
37 | N#CCOc1ccc(N2CC(CO)OC2=O)cc1 (stereo not drawn) [compound 760651, 5-hydroxymethyl 3-p-cyanomethyloxyphenyl 2-oxazolidinone] | 5.5 | 1.5 | 2.5 | 
38 | CC(=O)COc1ccc(N2CC(CO)OC2=O)cc1 (stereo not drawn) [compound 760652] | 7.1 | 13 | 2.8 | 
39 | C#CCOc1ccc(N2CC(COC(=O)NC)OC2=O)cc1 (stereo not drawn) [compound 760658] |  | 13.9 | 27 | > 12.5
40 | CNC(=O)OCC1CN(c2ccc(OCC#N)cc2)C(=O)O1 (stereo not drawn) [compound 760660, 5-N-methylcarbamoyloxymethyl 3-p-cyanomethyloxyphenyl 2-oxazolidinone] |  | 12.3 | 31 | > 12.5
41 | CCCCOc1ccc(N2CC(COC(=O)NC)OC2=O)cc1 (stereo not drawn) [compound 760662] |  | 23 | 17.5 | 48
42 | CC(=O)c1ccc(N2CC(CO)OC2=O)cc1 (stereo not drawn) [compound 760670] | 21 | 14 | 10 | 
43 | CNC(=O)OCC1CN(c2ccc(OCc3ccc([N+](=O)[O-])cc3)cc2)C(=O)O1 (stereo not drawn) [compound 760676] |  | 22 | 6.25 | > 12.5
44 | CNC(=O)OCC1CN(c2ccc(OCC(C)C)cc2)C(=O)O1 (stereo not drawn) [compound 760712] |  | 35 | 25 | 48
45 | CNC(=O)OCC1CN(c2ccc(OCc3ccc(F)cc3)cc2)C(=O)O1 (stereo not drawn) [compound 760717] |  | > 50 | 12.5 | > 12.5
46 | CC(C)NC(=O)OCC1CN(c2ccc(OCc3ccccc3)cc2)C(=O)O1 (stereo not drawn) [compound 760723] | > 50 | > 50 | 17.5 | 
